Laboratory results: ChEMBL document CHEMBL2029323, “The discovery and development of selective 3-fluoro-4-aryloxyallylamine inhibitors of the amine oxidase activity of semicarbazide-sensitive amine oxidase/vascular adhesion protein-1 (SSAO/VAP-1)” (Bioorg Med Chem Lett, 2012)

Experiments:
[1] = target: T1, Amine oxidase [copper-containing] 3 (Homo sapiens, UniProt Q16853); experiment: Inhibition of human recombinant SSAO/VAP1 assessed as H2O2 production by Resorufin/Amplex Red assay
T1 sequence (Q16853 whole entry): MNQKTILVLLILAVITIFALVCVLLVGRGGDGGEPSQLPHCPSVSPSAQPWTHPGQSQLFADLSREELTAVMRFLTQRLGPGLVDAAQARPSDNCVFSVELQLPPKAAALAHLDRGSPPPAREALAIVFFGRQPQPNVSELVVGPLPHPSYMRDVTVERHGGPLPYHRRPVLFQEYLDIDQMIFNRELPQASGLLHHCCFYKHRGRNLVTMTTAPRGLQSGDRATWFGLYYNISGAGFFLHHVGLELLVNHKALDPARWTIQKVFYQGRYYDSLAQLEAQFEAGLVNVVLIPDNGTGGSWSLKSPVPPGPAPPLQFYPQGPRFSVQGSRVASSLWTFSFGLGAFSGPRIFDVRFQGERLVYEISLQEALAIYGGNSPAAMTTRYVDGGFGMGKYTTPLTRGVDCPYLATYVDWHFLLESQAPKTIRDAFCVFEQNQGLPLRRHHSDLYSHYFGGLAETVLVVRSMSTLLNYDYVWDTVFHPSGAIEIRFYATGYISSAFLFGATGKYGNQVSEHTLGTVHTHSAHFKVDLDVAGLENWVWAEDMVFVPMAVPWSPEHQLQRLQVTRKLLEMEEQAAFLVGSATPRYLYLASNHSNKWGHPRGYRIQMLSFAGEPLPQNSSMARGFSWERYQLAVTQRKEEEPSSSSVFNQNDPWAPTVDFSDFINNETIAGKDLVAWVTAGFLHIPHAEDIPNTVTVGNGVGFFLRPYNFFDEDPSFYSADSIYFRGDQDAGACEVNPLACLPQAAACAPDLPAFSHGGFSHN

[2] = target: T2, Amine oxidase [flavin-containing] A (Homo sapiens, UniProt P21397); experiment: Inhibition of human recombinant MAO-A assessed as H2O2 production by Resorufin/Amplex Red assay
T2 sequence (P21397 whole entry): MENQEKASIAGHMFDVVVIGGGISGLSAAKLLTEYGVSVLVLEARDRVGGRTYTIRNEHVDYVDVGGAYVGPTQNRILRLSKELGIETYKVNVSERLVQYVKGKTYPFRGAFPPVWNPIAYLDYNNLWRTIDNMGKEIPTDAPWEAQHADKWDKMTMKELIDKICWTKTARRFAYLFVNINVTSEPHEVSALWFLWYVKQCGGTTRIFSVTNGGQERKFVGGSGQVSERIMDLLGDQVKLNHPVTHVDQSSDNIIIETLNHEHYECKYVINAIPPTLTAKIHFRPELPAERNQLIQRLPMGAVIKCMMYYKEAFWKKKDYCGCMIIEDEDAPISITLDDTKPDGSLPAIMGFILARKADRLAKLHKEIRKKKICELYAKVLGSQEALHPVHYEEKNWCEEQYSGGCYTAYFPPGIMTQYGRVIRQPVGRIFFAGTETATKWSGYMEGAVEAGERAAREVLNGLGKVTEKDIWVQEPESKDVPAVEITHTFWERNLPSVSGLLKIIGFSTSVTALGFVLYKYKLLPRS

[3] = target: T3, Amine oxidase [flavin-containing] B (Homo sapiens, UniProt P27338); experiment: Inhibition of human recombinant MAO-B assessed as H2O2 production by Resorufin/Amplex Red assay
T3 sequence (P27338 whole entry): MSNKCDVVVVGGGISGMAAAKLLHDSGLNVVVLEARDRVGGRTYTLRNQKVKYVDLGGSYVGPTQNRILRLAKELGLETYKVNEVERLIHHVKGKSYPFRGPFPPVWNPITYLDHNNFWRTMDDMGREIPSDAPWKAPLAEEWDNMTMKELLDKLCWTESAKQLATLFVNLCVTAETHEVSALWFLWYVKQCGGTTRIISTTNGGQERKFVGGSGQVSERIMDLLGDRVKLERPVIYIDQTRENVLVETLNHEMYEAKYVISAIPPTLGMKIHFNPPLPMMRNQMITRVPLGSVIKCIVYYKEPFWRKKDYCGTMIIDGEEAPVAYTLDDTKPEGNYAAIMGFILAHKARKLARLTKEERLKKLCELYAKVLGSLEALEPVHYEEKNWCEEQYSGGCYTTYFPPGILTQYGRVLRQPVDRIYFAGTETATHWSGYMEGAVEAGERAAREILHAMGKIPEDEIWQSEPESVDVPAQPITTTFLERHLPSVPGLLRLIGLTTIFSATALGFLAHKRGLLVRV

[4] = target: recombinant human DAO (diamine oxidase) (Homo sapiens, UniProt P19801); experiment: Inhibition of human DAO measuring H2O2 production by Resorufin/Amplex Red assay
[5] = target: T4, Amine oxidase [copper-containing] 3 (Mus musculus, UniProt O70423); experiment: Inhibition of SSAO/VAP1 in mouse adipocytes measuring H2O2 production by Resorufin/Amplex Red assay; type: cell-based
T4 sequence (O70423 whole entry): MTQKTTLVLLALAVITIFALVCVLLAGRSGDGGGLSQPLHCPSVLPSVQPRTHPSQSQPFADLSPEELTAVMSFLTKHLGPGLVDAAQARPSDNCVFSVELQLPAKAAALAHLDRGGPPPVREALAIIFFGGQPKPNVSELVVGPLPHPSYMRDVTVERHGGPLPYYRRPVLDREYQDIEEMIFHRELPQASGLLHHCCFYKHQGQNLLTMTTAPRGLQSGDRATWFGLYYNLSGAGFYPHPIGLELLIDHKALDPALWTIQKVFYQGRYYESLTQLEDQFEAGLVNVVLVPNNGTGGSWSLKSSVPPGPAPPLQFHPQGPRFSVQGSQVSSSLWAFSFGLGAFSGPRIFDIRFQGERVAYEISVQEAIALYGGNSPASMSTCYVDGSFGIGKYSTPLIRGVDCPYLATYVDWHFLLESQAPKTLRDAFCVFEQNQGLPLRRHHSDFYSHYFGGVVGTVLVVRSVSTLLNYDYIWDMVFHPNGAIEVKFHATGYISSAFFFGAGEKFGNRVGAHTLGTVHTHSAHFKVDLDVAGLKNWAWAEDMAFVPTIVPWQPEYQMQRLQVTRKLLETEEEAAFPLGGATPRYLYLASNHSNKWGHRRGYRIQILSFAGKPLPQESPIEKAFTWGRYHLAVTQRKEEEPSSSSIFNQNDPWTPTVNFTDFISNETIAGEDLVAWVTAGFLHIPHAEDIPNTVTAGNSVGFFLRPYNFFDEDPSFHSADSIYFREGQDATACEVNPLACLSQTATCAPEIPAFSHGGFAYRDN

[6] = Half life in po dosed rat; type: ADME, organism-based; settings: in vivo
[7] = target: T1, Amine oxidase [copper-containing] 3; experiment: Inhibition of human SSAO/VAP1 measuring H2O2 production by Kitz and Wilson plot analysis
[8] = Oral bioavailability in rat; type: ADME, organism-based; settings: in vivo
Mus musculus = experiment: Inhibition of SSAO/VAP1 in po dosed mouse gonadal adipose tissue after 6 hrs; type: functional, organism-based
[9] = target: T5, Amine oxidase [copper-containing] 2 (Homo sapiens, UniProt O75106); experiment: Inhibition of human AOC2
T5 sequence (O75106 whole entry): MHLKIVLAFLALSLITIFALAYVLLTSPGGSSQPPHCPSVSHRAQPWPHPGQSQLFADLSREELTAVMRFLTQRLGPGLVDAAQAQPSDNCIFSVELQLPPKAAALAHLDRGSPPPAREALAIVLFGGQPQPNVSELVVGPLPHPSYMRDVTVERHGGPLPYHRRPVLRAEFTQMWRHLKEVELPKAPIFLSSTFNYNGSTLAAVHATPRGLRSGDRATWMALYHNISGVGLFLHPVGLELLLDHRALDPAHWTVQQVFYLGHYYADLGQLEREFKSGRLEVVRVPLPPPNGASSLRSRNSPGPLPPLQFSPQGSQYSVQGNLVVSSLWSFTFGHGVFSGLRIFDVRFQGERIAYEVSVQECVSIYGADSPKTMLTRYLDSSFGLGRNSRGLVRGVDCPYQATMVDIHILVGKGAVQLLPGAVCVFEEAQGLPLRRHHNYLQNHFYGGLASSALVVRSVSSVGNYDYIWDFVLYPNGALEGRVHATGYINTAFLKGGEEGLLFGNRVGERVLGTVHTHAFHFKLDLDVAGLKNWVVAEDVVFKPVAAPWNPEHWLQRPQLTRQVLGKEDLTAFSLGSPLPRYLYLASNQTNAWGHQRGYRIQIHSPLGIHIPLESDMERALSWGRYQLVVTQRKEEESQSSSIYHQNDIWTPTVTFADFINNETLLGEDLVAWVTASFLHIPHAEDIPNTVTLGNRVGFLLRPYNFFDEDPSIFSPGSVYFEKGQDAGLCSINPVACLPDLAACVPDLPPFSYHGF

Salmonella typhimurium = experiment: Mutagenic activity in Salmonella typhimurium by Ames test; type: toxicity, organism-based; settings: salmonella enterica subsp. enterica serovar typhimurium
Rattus norvegicus = experiment: Inhibition of SSAO/VAP1 in po dosed rat gonadal adipose tissue after 6 hrs; type: functional, organism-based
[10] = Inhibition of CYP450; type: ADME

| Compound | IC50 [1] | IC50 [2] | IC50 [3] | also measured |
| --- | --- | --- | --- | --- |
| NC/C=C(/F)COc1ccccc1 | 290 nM | > 30000 nM | 180 nM | – |
| NC/C=C(\F)COc1ccccc1 | 20000 nM | – | – | – |
| NCC=CCOc1ccccc1 [listing 1 of 2 here] | > 100000 nM | – | – | – |
| NCC=CCOc1ccccc1 [listing 2 of 2 here] | 82000 nM | – | – | – |
| NC/C=C(/F)COc1ccc(Oc2ccccc2)cc1 | 240 nM | – | 450 nM | – |
| NC/C=C(/F)COc1cccc(Cl)c1 | 250 nM | – | 30 nM | – |
| CC(C)(C)c1ccc(OC/C(F)=C\CN)cc1 | 210 nM | > 30000 nM | 6400 nM | – |
| NC/C=C(/F)COc1ccc(F)c(F)c1 | 190 nM | – | 90 nM | – |
| NC/C=C(/F)COc1ccc(C(N)=O)cc1 | 1070 nM | > 30000 nM | > 30000 nM | – |
| CN(C)C(=O)c1ccc(OC/C(F)=C\CN)cc1 | 370 nM | – | 19000 nM | – |
| CN(Cc1ccccc1)C(=O)c1ccc(OC/C(F)=C\CN)cc1 | 260 nM | – | 2210 nM | – |

Stronger by IC50 [1], values ahead:

| IC50 [1] | IC50 [2] | IC50 [3] | Compound | also measured |
| --- | --- | --- | --- | --- |
| 160 nM | – | 310 nM | COc1ccc(OC/C(F)=C\CN)cc1 | – |
| 20 nM | – | 160 nM | CSc1ccc(OC/C(F)=C\CN)cc1 | – |
| 180 nM | – | 70 nM | NC/C=C(/F)COc1ccc(OC(F)(F)F)cc1 | – |
| 70 nM | – | 10 nM | NC/C=C(/F)COc1ccc([N+](=O)[O-])cc1 | – |
| 40 nM | – | 130 nM | NC/C=C(/F)COc1ccc(C(F)(F)F)cc1 | – |
| 150 nM | > 10000 nM | 30 nM | NC/C=C(/F)COc1cccc(C(F)(F)F)c1 | – |
| 140 nM | – | 11000 nM | NC/C=C(/F)COc1ccc(C(=O)N2CCCC2)cc1 | – |
| 20 nM | > 30000 nM | 1640 nM | NC/C=C(/F)COc1ccc(C(=O)NC2CCCC2)cc1 | IC50 [4]: > 30000 nM; IC50 [5]: 530 nM |
| 10 nM | > 30000 nM | 1120 nM | NC/C=C(/F)COc1ccc(C(=O)NC2CCCCC2)cc1 | IC50 [4]: 26100 nM; half-life [6]: 1.62 h; Ki [7]: 1640 nM; bioavailability [8]: 62%; EC50 (Mus musculus): 10 mg/kg; IC50 [9]: > 10000 nM; Activity (Salmonella typhimurium): Non-toxic; IC50 [5]: 150 nM; EC50 (Rattus norvegicus): 10 mg/kg; inhibition (INH) [10]: Not Active |
| 80 nM | – | 620 nM | NC/C=C(/F)COc1ccc(C(=O)NCc2ccccc2)cc1 | – |
| 30 nM | > 30000 nM | 1610 nM | C[C@@H](NC(=O)c1ccc(OC/C(F)=C\CN)cc1)c1ccccc1 | IC50 [4]: 2460 nM |
| 40 nM | > 30000 nM | 6430 nM | C[C@H](NC(=O)c1ccc(OC/C(F)=C\CN)cc1)c1ccccc1 | IC50 [4]: 74100 nM; IC50 [5]: 130 nM |
| 40 nM | – | 2980 nM | CC(NC(=O)c1ccc(OC/C(F)=C\CN)cc1)c1ccccc1 (racemic) | – |
| 20 nM | 1780 nM | 10 nM | NC/C(=C/F)CCc1ccc(F)cc1 [MOFEGILINE] | IC50 [4]: > 10000 nM; Ki [7]: 1610 nM; IC50 [5]: 10 nM |
